Source: the CheMixHub viscosity set

Test: xn = mol fraction of the nth substance listed

CCNC(C)=O + O
298.16 K, 101 kPa
Conditions	viscosity [mPa·s]
x2 = 0.0826	6.11
x2 = 0.1593	6.33
x2 = 0.2575	6.67
x2 = 0.3475	6.96
x2 = 0.427	7.14
x2 = 0.4728	7.18
x2 = 0.5438	7.12
x2 = 0.585	6.98
x2 = 0.7047	6.14
x2 = 0.7459	5.72

CCOC(=O)[C@@H](O)[C@H](O)C(=O)OCC + CCCCCCO
viscosity [mPa·s], 101 kPa
Conditions	x1 = 0.1001	x1 = 0.2	x1 = 0.3	x1 = 0.4	x1 = 0.5	x1 = 0.5998	x1 = 0.7001	x1 = 0.8	x1 = 0.8995
293.15 K	6.18	7.861	10.57	14.54	20.8	30.68	43.54	72.93	122.9
298.15 K	5.252	6.543	8.559	11.55	16.09	22.97	31.66	50.5	81.01
303.15 K	4.449	5.484	7.046	9.307	12.59	17.51	23.57	36.18	55.71
308.15 K	3.803	4.618	5.836	7.569	10.04	13.64	18	26.73	39.73
313.15 K	3.251	3.893	4.85	6.204	8.087	10.78	13.99	20.22	29.19
318.15 K	2.838	3.369	4.146	5.219	6.697	8.77	11.19	15.77	22.15
323.15 K	2.506	2.946	3.581	4.451	5.632	7.262	9.138	12.59	17.3

CCOC(=O)c1ccccc1 + CCCCCCCCCCCCCC
101 kPa
Conditions	viscosity [mPa·s]
298.15 K, x2 = 0.0376	1.927
298.15 K, x2 = 0.0653	1.899
298.15 K, x2 = 0.097	1.866
298.15 K, x2 = 0.1285	1.84
298.15 K, x2 = 0.1619	1.815
298.15 K, x2 = 0.1952	1.799
298.15 K, x2 = 0.229	1.781
298.15 K, x2 = 0.269	1.767
298.15 K, x2 = 0.3084	1.754
298.15 K, x2 = 0.3521	1.745
298.15 K, x2 = 0.3928	1.742
298.15 K, x2 = 0.4877	1.744
298.15 K, x2 = 0.5485	1.755
298.15 K, x2 = 0.5924	1.767
298.15 K, x2 = 0.6572	1.791
298.15 K, x2 = 0.7238	1.827
298.15 K, x2 = 0.7795	1.867
298.15 K, x2 = 0.8695	1.935
308.15 K, x2 = 0.0358	1.606
308.15 K, x2 = 0.0727	1.582
308.15 K, x2 = 0.1009	1.566
308.15 K, x2 = 0.1305	1.552
308.15 K, x2 = 0.1614	1.537
308.15 K, x2 = 0.198	1.524
308.15 K, x2 = 0.2316	1.515
308.15 K, x2 = 0.2666	1.506
308.15 K, x2 = 0.3094	1.498
308.15 K, x2 = 0.3501	1.493
308.15 K, x2 = 0.3905	1.49
308.15 K, x2 = 0.4393	1.489
308.15 K, x2 = 0.4794	1.491
308.15 K, x2 = 0.5373	1.498
308.15 K, x2 = 0.5983	1.51
308.15 K, x2 = 0.6573	1.527
308.15 K, x2 = 0.7193	1.552
308.15 K, x2 = 0.8442	1.615
308.15 K, x2 = 0.9249	1.663
318.15 K, x2 = 0.0231	1.332
318.15 K, x2 = 0.0543	1.31
318.15 K, x2 = 0.0817	1.291
318.15 K, x2 = 0.1144	1.274
318.15 K, x2 = 0.1449	1.259
318.15 K, x2 = 0.1819	1.245
318.15 K, x2 = 0.2156	1.233
318.15 K, x2 = 0.2563	1.225
318.15 K, x2 = 0.2936	1.219
318.15 K, x2 = 0.3396	1.213
318.15 K, x2 = 0.3807	1.212
318.15 K, x2 = 0.4322	1.213
318.15 K, x2 = 0.4784	1.216
318.15 K, x2 = 0.5446	1.226
318.15 K, x2 = 0.5958	1.237
318.15 K, x2 = 0.6468	1.251
318.15 K, x2 = 0.6941	1.267
318.15 K, x2 = 0.7925	1.306
318.15 K, x2 = 0.8579	1.336

CCCCCCCCCCCl + CCCCCCCCCC
viscosity [mPa·s], 101 kPa
Conditions	x2 = 0.1	x2 = 0.2004	x2 = 0.2954	x2 = 0.3988	x2 = 0.4972	x2 = 0.593	x2 = 0.6968	x2 = 0.7947	x2 = 0.8906
293.15 K	1.796	1.66	1.539	1.419	1.315	1.225	1.136	1.063	0.997
298.15 K	1.649	1.523	1.415	1.307	1.214	1.133	1.054	0.99	0.931
303.15 K	1.5	1.388	1.291	1.196	1.114	1.042	0.973	0.917	0.867
308.15 K	1.353	1.25	1.167	1.084	1.013	0.951	0.891	0.844	0.802

CCOC(=O)c1ccccc1 + CCCCCCC
viscosity [mPa·s]
Conditions	298.15 K	303.15 K	308.15 K	313.15 K	318.15 K
101 kPa, x1 = 0.1042	–	0.417	0.397	0.37	–
101 kPa, x1 = 0.2052	–	0.475	0.447	0.42	–
101 kPa, x1 = 0.3085	–	0.55	0.514	0.482	–
101 kPa, x1 = 0.4071	–	0.63	0.591	0.55	–
101 kPa, x1 = 0.5078	–	0.738	0.687	0.64	–
101 kPa, x1 = 0.6071	–	0.865	0.802	0.745	–
101 kPa, x1 = 0.7074	–	1.03	0.95	0.875	–
101 kPa, x1 = 0.8047	–	1.217	1.12	1.03	–
101 kPa, x1 = 0.9038	–	1.466	1.34	1.23	–
101.3 kPa, x1 = 0.098	0.428	–	0.387	–	0.351
101.3 kPa, x1 = 0.1952	0.484	–	0.433	–	0.393
101.3 kPa, x1 = 0.2948	0.55	–	0.492	–	0.44
101.3 kPa, x1 = 0.3941	0.638	–	0.564	–	0.498
101.3 kPa, x1 = 0.4961	0.747	–	0.655	–	0.571
101.3 kPa, x1 = 0.5985	0.882	–	0.767	–	0.662
101.3 kPa, x1 = 0.6974	1.047	–	0.912	–	0.771
101.3 kPa, x1 = 0.7984	1.263	–	1.082	–	0.913
101.3 kPa, x1 = 0.8972	1.539	–	1.286	–	1.08
